Residues, ends and D or L forms follow the SMILES beside them. *: point of attachment. AFC = O=c1cc(C(F)(F)F)c2ccc(N*)cc2o1; MeOSuc = COC(=O)CCC(=O)*; Cbz = O=C(OCc1ccccc1)*; Boc = CC(C)(C)OC(=O)*
Key:
Taenia solium crude mix = experiment: Competitor assay of vehicles against high Vmax substrate cocktails (Step III), crude mix; assay type: biochemical
Text: Step III for a crude mix proceeds as it would for a purified protease, except that Vm is used instead of kcat.
One of the most intriguing findings in this experiment was that a highly similar inhibition pattern for the competitor assay resulted when the crude mix was employed as the source of the target protease. Although there were some variations in the effects of inhibitor dilution, the most highly ranked vehicles remained inhibitory consistently in comparison to the profile with the target protease. The relative profile and composition of the top tier of vehicles was identical. Z-LLL-AFC, Z-LLY-AFC, Mu-LY-AFC, Boc-VPR-AFC, Z-SY-AFC, Z-RR-AFC, Z-FLF-AFC, and Z-LGR-AFC consistently emerged as the top eight vehicles (Fig. 5b), respectively, based upon their V values (Table 2). […] It was notable that the three vehicles had very similar V values. […] As was mentioned, this vehicle along with Z-LLL-AFC and Z-LLY-AFC, were consistently the most inhibitory vehicles. The V values of the most inhibitory vehicle series are shown below in Table 2. Again, a clear break between the first and second tier vehicles is discernible for the V value. Table 2. Vehicles and V value rankings.

[1] = system: purified Taenia solium cysteine protease; experiment: Competitor assay of low Vmax substrates (vehicles) against high Vmax substrate cocktails (Step III), purified protease; assay type: biochemical; settings: vehicle 8X10^-6 M; for inhibition with the final cocktail (7.4%): 7.4% cocktail (five high Vmax substrates, 1X10^-6 M each); for V Value: V = P * M, P inhibition with first (1.4%) cocktail, M with last (7.4%) cocktail, each cocktail substrate 1X10^-6 M; for inhibition with the 1.4% cocktail: 1.4% cocktail (Z-FR-AFC 1X10^-6 M)
Procedure: The top 1.4% of substrates (out of 67) in the full panel of substrates with the highest Vmax values were chosen to compose a "TOP 1.4% cocktail". (We employed "Vmax" here although Kcat could also be used). Due to the lower number of substrates, a percentage was not chosen for the "BOTTOM %" substrates. Alternately, all substrates which were not cleaved as determined by a value of 10 uM/hr or less, were chosen to be tested in this step for competitive ability. Hereinafter the term "vehicle" will represent low Vmax substrates that were capable of inhibiting cleavage of the percent cocktails. In this instance, we tested for "vehicles" which inhibited cleavage of the TOP 1.4% cocktail (they were delivered into the active site). Based upon our results from Step II, the top 1.4% cocktail was composed of Z-Phe-Arg-AFC, the highest cleaved substrate.
The experiment began with a competitor test between the noncleaved low Vmax substrates and the highest Vmax substrate, Z-Phe-Arg-AFC. Concentrations were varied between the low Vmax substrate and Z-Phe-Arg-AFC, as described above under "refinement of assay" until a relative inhibition profile was obtained.
The mixture was allowed to equilibrate for a period of 30 minutes. Finally, active purified enzyme was added to the tubes at a concentration that was always 50 times less than the concentration of the high and low Vmax substrates, respectively, in order to insure saturation conditions. This concentration varied from purification to purification and the amount added depended upon the yield and specific activity of the purified protease.
Positive controls were set up in a manner similar to that described for test controls, except that solvent was added in substitution for the low Vmax substrate (in a volume equal to the low Vmax volume addition). All of the substrates could be dissolved in dimethylsulfoxide (DMSO), and therefore, this was the solvent of choice. Negative controls were set up by adding the low Vmax and the high Vmax substrate in a tube without the protease. All potential non-proteolytic induced liberation of AFC was therefore controlled for in this tube (a feature which also monitored stability of the AFC substrates, since these substrates will freely liberate AFC when unstable). A tube set was established for this negative control.
All controls were set up in triplicate, and experiments were repeated a minimum of five times. The assays were incubated at 37°C, for 18 hours overnight.
Percent inhibition was calculated as: %Inhibition = ((AFC positive for "Y"−AFC negative for "Y")−(AFC test−AFC negative for "Y"))/(AFC positive for "Y"−AFC negative for "Y") × 100 [formula]
A 2.9% cocktail of the high Vmax substrates was made. This was composed of Z-FR-AFC and the second most cleaved substrate, Z-FAR-AFC. The vehicles promoted from the initial screenings above were again tested for competitive inhibition ability with the new cocktails. Their concentrations were set identically to those which were "fixed" in the previous protocols. In other words, 8X10^-6 M of the vehicle was added to the culture tube with 1X10^-6 M of Z-FR-AFC and 1X10^-6 M of Z-FAR-AFC. Active protease was added last at a concentration that was 50 times less than the concentration of the high Vmax substrate (to ensure saturating conditions).
In similar experimental fashion, a 4.4%, 5.9%, and 7.4% cocktail were tested with each of the promising vehicles. Each increase in the percentage represented an increase by an additional high Vmax substrate. Each of the individual components in the cocktail were added at 1X10^-6 M each, to 8X10^-6 M of the vehicle. The composition of the cocktails was as follows: 4.4% cocktail: Z-FR-AFC, Z-FAR-AFC, and Z-AAK-AFC (third highest cleaved substrate); 5.9% cocktail: Z-FR-AFC, Z-FAR-AFC, Z-AAK-AFC, and AP-AFC (fourth highest cleaved substrate); 7.4% cocktail: […], Z-FAR-AFC, Z-AAK-AFC, AP-AFC, and Z-VLR-AFC. […]

[2] = system: purified Taenia solium cysteine protease; experiment: Substrate cleavage screen of AFC-linked peptides (Step II), purified protease; assay type: biochemical; settings: 0.4 M Citrate, pH 4.9, 0.01 M cysteine, 18 h, 37 °C
Procedure: In this step, the most efficacious substrate for detection of the cysteine protease (high Kcat substrate) was determined in vitro along with those substrates which were not well cleaved (low kcat substrates). From this point forward, the following conditions refer to all assays: "assay buffer" refers to 0.4 M Citrate, pH 4.9 (the pH optima of the protease). Incubation time was 18 hours at 37°C. These conditions were determined by our preliminary data to be best for kinetic evaluation of the protease. […] The experiments were conducted in 6X50 […] Borosilicate mini-culture tubes (Fisher Scientific), and a fluorometer (Turner) was employed for detection of AFC cleavage.
Since the full 8,420 amino acid possibilities for cleavage were not available, representative substrates were employed. […] In order to choose this subset, representative amino acids (i.e., selected from the categories of acidic, basic, nonpolar, uncharged) were chosen so as to create as many categories of motifs as feasible for the P3-P1 positions with a set of 67 small peptides (see lists at Fig. 4a and Fig. 4b). The target cysteine protease from Taenia solium was isolated using the purification methods described previously in the patent WO 00/63350.
Approximately 1 ug (or a proteolytically detectable amount) of the purified target cysteine protease was incubated individually, with 1 ug of each of the available substrates in 500 uL of assay buffer. During this setup, the substrate was pre-incubated in the assay buffer for a short period of time (20 minutes) in order to reach an equilibrated status before the addition of the protease. Cleavage assessments were based upon the property of the protease to cleave synthetic peptide substrates linked at the C-terminus to 7-Amino-4-Trifluoromethyl Coumarin (AFC) as previously described. AFC linked tripeptides, dipeptides, and monopeptides, (with a variety of permutations at P3-P1) were available from Enzyme Systems Products (Livermore, CA), and were used as the source of the subset. Following incubation of enzyme preparations overnight (18 h, 37 °C) with peptide in assay buffer (Citrate, pH 4.9, supplemented with 0.01 M cysteine), free AFC concentrations were measured fluorometrically (excitation 405 nm, emission 505 nm). The proteolytic cleavage released the AFC group, which was measurable as a free molecule by a standard fluorometer and converted into molar quantities, based upon a previously established standard curve. The simplicity of AFC detection by the fluorometer was a key factor which expedited and simplified the procedures.
In the assay, 1 ug of the purified Taenia cysteine protease was added to a saturating amount of Z-Phe-Arg-AFC (4X10^-5 M) in assay buffer. The experiment was conducted in triplicate and repeated at least 5 times until we were certain that variability in AFC cleavage was not statistically significant.
Vmax for the cleavage of substrates by the purified target protease and Vmax for substrates cleaved by the crude mix protease were each calculated using conventional kinetic modeling calculations already described in the art.

BALB/c mice = experiment: Observation of side effects in treated mice; assay type: in vivo; settings: long-term studies

| Compound | Tier (Taenia solium crude mix) | inhibition with the final cocktail (7.4%) [1] | cleavage of AFC substrate (Vmax) [2] | other results |
| --- | --- | --- | --- | --- |
| O=C(N[C@@H](CO)C(=O)N[C@@H](Cc1ccc(O)cc1)C(=O)Nc1ccc2c(C(F)(F)F)cc(=O)oc2c1)OCc1ccccc1 [Z-SY-AFC] (Cbz-Ser-Tyr-{AFC}) | 2 (The second tier was composed of those vehicles that produced inhibition between 20-50% inhibition when in the presence of the 1.4% cocktail) | less than 20% | – | V Value (Taenia solium crude mix; V = P * M): 0.09; V Value [1]: 0.09 |
| Cbz-Leu-Gly-Arg-{AFC} [Z-LGR-AFC] | – | less than 20% | noncleavable | inhibition with the 1.4% cocktail [1]: greater than 20% |
| CC(C)[C@H](NC(=O)OC(C)(C)C)C(=O)N1CCC[C@H]1C(=O)N[C@@H](CCCNC(=N)N)C(=O)Nc1ccc2c(C(F)(F)F)cc(=O)oc2c1 [B-VPR-AFC, Boc-Val-Pro-Arg-AFC] (Boc-Val-Pro-Arg-{AFC}) | 2 (The second tier was composed of those vehicles that produced inhibition between 20-50% inhibition when in the presence of the 1.4% cocktail) | less than 20% | noncleavable | V Value ([1]; listed as B-VPR-AC): 0.120 |
| COC(=O)CCC(=O)N[C@@H](Cc1ccccc1)C(=O)N[C@@H](CC(C)C)C(=O)N[C@@H](Cc1ccccc1)C(=O)Nc1ccc2c(C(F)(F)F)cc(=O)oc2c1 [MeoSuc-FLF-AFC] (MeOSuc-Phe-Leu-Phe-{AFC}) | – | – | not cleaved | – |
| N=C(N)NCCC[C@H](NC(=O)OCc1ccccc1)C(=O)N[C@@H](CCCNC(=N)N)C(=O)Nc1ccc2c(C(F)(F)F)cc(=O)oc2c1 [Z-RR-AFC] (Cbz-Arg-Arg-{AFC}) | 2 (The second tier was composed of those vehicles that produced inhibition between 20-50% inhibition when in the presence of the 1.4% cocktail) | less than 20% | – | V Value [1]: 0.09 |
| CC(C)CC(NC(=O)OCc1ccccc1)C(=O)NC(C=CS(=O)(=O)c1ccccc1)Cc1ccccc1 (stereo not drawn) | – | – | – | side effects in treated mice (BALB/c mice): goiter and neurological problems |
| N[C@@H](CCC(=O)O)C(=O)N[C@@H](Cc1ccc(O)cc1)C(=O)Nc1ccc2c(C(F)(F)F)cc(=O)oc2c1 [EY-AFC] (H-Glu-Tyr-{AFC}) | – | – | not cleaved | – |
| CC(C)C[C@H](NC(=O)OCc1ccccc1)C(=O)N[C@@H](CCCNC(=N)N)C(=O)N[C@@H](CCCNC(=N)N)C(=O)Nc1ccc2c(C(F)(F)F)cc(=O)oc2c1 [Z-LRR-AFC] (Cbz-Leu-Arg-Arg-{AFC}) | – | – | – | inhibition with the 1.4% cocktail [1]: greater than 20% |
